Results published in PubChem BioAssay AID2060489 (Molecular Pharmacology Branch, DTP, NCI, 2025).

System: 922993-354-T-J3-PDC complex spheroids, viability
Test: Anticancer human tumor 922993-354-T-J3-PDC patient-derived endometrial carcinoma cell line growth inhibition [GQUAD]
Conditions: for IC50: curve of first compound; for viability, T/C: stronger effect = lower value; active = viability on the fitted dose curve at most 10% of control; inactive = the rest
In short: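 Multi-cell-type spheroids of tumor cells with HUVEC and mesenchymal stem cells, treated with drug combinations. Concentrations descend in half-log steps from near clinical Cmax, or from 10 microM where Cmax is unknown; viability read-out.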

[1] = second compound 0.0316 µM, first compound 0.0316 µM
[2] = second compound 0.0316 µM, first compound 0.1 µM
[3] = second compound 0.0316 µM, first compound 0.316 µM
[4] = second compound 0.0316 µM, first compound 1 µM
[5] = second compound 0.0316 µM, first compound 3.16 µM
[6] = second compound 0.0316 µM, first compound 10 µM
[7] = second compound 0.1 µM, first compound 0.0316 µM
[8] = second compound 0.1 µM, first compound 0.1 µM
[9] = second compound 0.1 µM, first compound 0.316 µM
[10] = second compound 0.1 µM, first compound 1 µM
[11] = second compound 0.1 µM, first compound 3.16 µM
[12] = second compound 0.1 µM, first compound 10 µM
[13] = second compound 0.316 µM, first compound 0.0316 µM
[14] = second compound 0.316 µM, first compound 0.1 µM
[15] = second compound 0.316 µM, first compound 0.316 µM
[16] = second compound 0.316 µM, first compound 1 µM
[17] = second compound 0.316 µM, first compound 3.16 µM
[18] = second compound 0.316 µM, first compound 10 µM
[19] = second compound 1 µM, first compound 0.0316 µM
[20] = second compound 1 µM, first compound 0.1 µM
[21] = second compound 1 µM, first compound 0.316 µM
[22] = second compound 1 µM, first compound 1 µM
[23] = second compound 1 µM, first compound 3.16 µM
[24] = second compound 1 µM, first compound 10 µM
[25] = second compound 3.16 µM, first compound 0.0316 µM
[26] = second compound 3.16 µM, first compound 0.1 µM
[27] = second compound 3.16 µM, first compound 0.316 µM
[28] = second compound 3.16 µM, first compound 1 µM
[29] = second compound 3.16 µM, first compound 3.16 µM
[30] = second compound 3.16 µM, first compound 10 µM
[31] = second compound 10 µM, first compound 0.0316 µM
[32] = second compound 10 µM, first compound 0.1 µM
[33] = second compound 10 µM, first compound 0.316 µM
[34] = second compound 10 µM, first compound 1 µM
[35] = second compound 10 µM, first compound 3.16 µM
[36] = second compound 10 µM, first compound 10 µM
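Also: spheroids exposed to compounds for seven days.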
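For viability, T/C in this document: 100% = DMSO vehicle control viability.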

CC(C)n1c(=O)n(C)c2cnc3cc(F)c(-c4ccc(OCCCN5CCCCC5)nc4)cc3c21 + Cc1[nH]c2ccc(F)cc2c1-c1nc2c3cccnc3c3ncccc3c2[nH]1
> 10 µM: IC50 (second compound 0.0316 µM) | IC50 (second compound 0.1 µM) | IC50 (second compound 0.316 µM) | IC50 (second compound 1 µM) | IC50 (second compound 3.16 µM) | IC50 (second compound 10 µM)
inactive: viability, T/C [1] 110% | viability, T/C [2] 123% | viability, T/C [3] 113% | viability, T/C [4] 91.4% | viability, T/C [5] 77.3% | viability, T/C [6] 71.3% | viability, T/C [7] 116% | viability, T/C [8] 95.3% | viability, T/C [9] 103% | viability, T/C [10] 96.2% | viability, T/C [11] 72.9% | viability, T/C [12] 60.3% | viability, T/C [13] 91.8% | viability, T/C [14] 124% | viability, T/C [15] 115% | viability, T/C [16] 114% | viability, T/C [17] 88.2% | viability, T/C [18] 62.9% | viability, T/C [19] 118% | viability, T/C [20] 83.4% | viability, T/C [21] 131% | viability, T/C [22] 112% | viability, T/C [23] 88.5% | viability, T/C [24] 75.9% | viability, T/C [25] 100% | viability, T/C [26] 89.5% | viability, T/C [27] 91.5% | viability, T/C [28] 95.1% | viability, T/C [29] 84.8% | viability, T/C [30] 80.8% | viability, T/C [31] 98.9% | viability, T/C [32] 93.7% | viability, T/C [33] 94% | viability, T/C [34] 97.4% | viability, T/C [35] 85.5% | viability, T/C [36] 73.8%

Cc1cccc(N(C)C(=O)C2C(O)CCN2c2nc(C)cc(C(F)(F)F)c2C#N)c1 (stereo unspecified) + Cc1[nH]c2ccc(F)cc2c1-c1nc2c3cccnc3c3ncccc3c2[nH]1
> 10 µM: IC50 (second compound 0.0316 µM) | IC50 (second compound 0.1 µM) | IC50 (second compound 0.316 µM) | IC50 (second compound 1 µM) | IC50 (second compound 3.16 µM) | IC50 (second compound 10 µM)
inactive: viability, T/C [1] 111% | viability, T/C [2] 112% | viability, T/C [3] 80.8% | viability, T/C [4] 94% | viability, T/C [5] 120% | viability, T/C [6] 82.9% | viability, T/C [7] 108% | viability, T/C [8] 122% | viability, T/C [9] 97.7% | viability, T/C [10] 135% | viability, T/C [11] 120% | viability, T/C [12] 126% | viability, T/C [13] 90.7% | viability, T/C [14] 112% | viability, T/C [15] 74.7% | viability, T/C [16] 104% | viability, T/C [17] 87.9% | viability, T/C [18] 99.3% | viability, T/C [19] 112% | viability, T/C [20] 96.5% | viability, T/C [21] 104% | viability, T/C [22] 114% | viability, T/C [23] 102% | viability, T/C [24] 97.3% | viability, T/C [25] 123% | viability, T/C [26] 121% | viability, T/C [27] 103% | viability, T/C [28] 96.9% | viability, T/C [29] 129% | viability, T/C [30] 73.8% | viability, T/C [31] 87% | viability, T/C [32] 94.3% | viability, T/C [33] 109% | viability, T/C [34] 111% | viability, T/C [35] 95.4% | viability, T/C [36] 123%

Cn1ncnc1[C@H]1c2n[nH]c(=O)c3cc(F)cc(c23)N[C@@H]1c1ccc(F)cc1 + Cc1cnc(CNC(=O)c2c(=O)c3ccc(N4CCCN(C)CC4)nc3n3c2sc2ccccc23)cn1
0.00719 µM: IC50 (second compound 0.316 µM)
inactive: viability, T/C (second compound 0.0316 µM, first compound 0.000999 µM) 93.2% | viability, T/C (second compound 0.0316 µM, first compound 0.00316 µM) 78.7% | viability, T/C (second compound 0.0316 µM, first compound 0.00999 µM) 76.6% | viability, T/C [1] 72.8% | viability, T/C (second compound 0.0316 µM, first compound 0.0999 µM) 72.3% | viability, T/C [3] 59.9% | viability, T/C (second compound 0.1 µM, first compound 0.000999 µM) 65.4% | viability, T/C (second compound 0.1 µM, first compound 0.00316 µM) 69.2% | viability, T/C (second compound 0.1 µM, first compound 0.00999 µM) 58.3% | viability, T/C [7] 50.7% | viability, T/C (second compound 0.1 µM, first compound 0.0999 µM) 52.2% | viability, T/C [9] 39.3% | viability, T/C (second compound 0.316 µM, first compound 0.000999 µM) 43.5% | viability, T/C (second compound 0.316 µM, first compound 0.00316 µM) 54.2% | viability, T/C (second compound 0.316 µM, first compound 0.00999 µM) 55.6% | viability, T/C [13] 44.2% | viability, T/C (second compound 0.316 µM, first compound 0.0999 µM) 41.6% | viability, T/C [15] 32% | viability, T/C (second compound 1 µM, first compound 0.000999 µM) 49.2% | viability, T/C (second compound 1 µM, first compound 0.00316 µM) 53.4% | viability, T/C (second compound 1 µM, first compound 0.00999 µM) 45.9% | viability, T/C [19] 49.9% | viability, T/C (second compound 1 µM, first compound 0.0999 µM) 50.3% | viability, T/C [21] 49.6% | viability, T/C (second compound 3.16 µM, first compound 0.000999 µM) 41.9% | viability, T/C (second compound 3.16 µM, first compound 0.00316 µM) 50.1% | viability, T/C (second compound 3.16 µM, first compound 0.00999 µM) 44% | viability, T/C [25] 49.5% | viability, T/C (second compound 3.16 µM, first compound 0.0999 µM) 49.4% | viability, T/C [27] 37.2% | viability, T/C (second compound 10 µM, first compound 0.000999 µM) 49% | viability, T/C (second compound 10 µM, first compound 0.00316 µM) 43.6% | viability, T/C (second compound 10 µM, first compound 0.00999 µM) 48.4% | viability, T/C [31] 49% | viability, T/C (second compound 10 µM, first compound 0.0999 µM) 49.3% | viability, T/C [33] 41.6%
> 0.316 µM: IC50 (second compound 0.0316 µM)
0.0717 µM: IC50 (second compound 0.1 µM)
< 0.000999 µM: IC50 (second compound 1 µM) | IC50 (second compound 3.16 µM) | IC50 (second compound 10 µM)
